{
  "source": "patent US11612586B2",
  "about": "“Indole regulation of antigen presenting cells” (THE TEXAS A&M UNIVERSITY SYSTEM, priority 2016, dated 2023)",
  "key": {"B220 (CD45R)": {"tested_on": "B220 (CD45R)", "experiment": "B220 surface expression on BMDCs", "type": "cell-based, mouse", "conditions": "BMDCs cultured from day 3 with indole (1 mM) or retinoic acid (1 μM)", "protocol": "FIGS. 12A and 12B graphically illustrate that indole induces CCR9 and B220 on DCs. BMDCs were cultured in the presence of indole (1 mM), retinoic acid (1 μM), or DMF solvent control from day 3. On day 7, DCs were surface stained for expression of CCR9 and B220 and analyzed by flow cytometry. […] Mean of three independent experiments. * indicates p<0.05 for one-way ANOVA followed by Dunnett's post-test.\nAn indole-induced upregulation of the B220 (CD45R) antigen was also observed (FIGS. 12A and 12B), which is widely used to distinguish the plasmacytoid DC lineage and is believed to contribute to gut homing. However, more recently B220 has been reported to distinguish a DC subset more closely developmentally related to conventional rather than plasmacytoid DCs and a precursor to resident CD8+ and CD8− conventional DCs."}, "[1]": {"tested_on": "aldehyde dehydrogenase (ALDH)", "experiment": "Aldehyde dehydrogenase activity in BMDCs (Aldefluor)", "type": "cell-based, mouse", "conditions": "indole 1 mM from day 3, Aldefluor", "protocol": "FIG. 13A: BMDCs were cultured from day 3 with indole (1 mM), retinoic acid (1 uM), or DMF control were assayed for aldehyde dehydrogenase (ALDH) activity using the Aldefluor commercial kit. The ALDH inhibitor, DEAB reagent, was included to control for background fluorescence. Aldefluor fluorescence as a measure of ALDH activity was analyzed by flow cytometry. Data is reported as percentage of Aldefluor positive DCs (left panel) and corresponding MFI values (right panel). Individual dots represent data from five independent experiments. FIG. 13B: Gene expression of aldh1a2 was assayed by real-time qPCR in day 7 BMDCs cultured with indole from day 3. Gene expression was normalized to 18 s ribosomal RNA. […]\nOne possible explanation for these observations is that indole promotes retinoic acid availability to the DCs, thus inducing gut homing markers indirectly by providing substrate for a previously identified mechanism. To investigate this possibility, aldehyde dehydrogenase (ALDH) activity was analyzed via flow cytometry using the fluorescent ALDH substrate, Aldefluor. […]\nActivity of aldehyde dehydrogenase (ALDH) in individual BMDCs was measured using an Aldefluor staining kit (Stem Cell Technologies) according to the manufacturer's instructions with minor modifications. […] Subsequently, cells were stained with CD11c in cold Aldefluor assay buffer and then analyzed by flow cytometry."}, "naïve CD4+CD25− T cells": {"tested_on": "naïve CD4+CD25− T cells", "experiment": "T cell activation in the presence of BMDC supernatant: Treg induction", "type": "cell-based, mouse", "conditions": "T cells on α-CD3/α-CD28 plates, 72 hours", "procedure": "Specifically, naïve CD4+CD25− T cells were FACS-sorted and plated in 96-well, α-CD3 and α-CD28-coated tissue culture plates in a volume of 100 ul cell culture media. […] T cells with DC supernatant were cultured for 72 hours in the presence or absence of exogenous TGF-β. Subsequently, cells were stained for the transcription factor Foxp3 and analyzed by flow cytometry.\nNaïve CD4+CD25− T cells were FACS-sorted as described above and plated in 96-well, αCD3 and αCD28-coated tissue culture plates in a volume of 100 ul cell culture media. An equal volume of spent BMDC supernatant was added, in the presence or absence of exogenous TGF-β, and T cells were cultured for 72 hours. To generate supernatants, day 3-treated BMDCs were collected on day 7, washed extensively and plated in a 48-well cell culture plate at 5×10^5 cells per well in 500 ul fresh complete media for 24 hours in the presence or absence of 1 ug/ml LPS. Plates were then centrifuged and supernatants were collected, filtered, and stored at −20° C. until use."}, "IL-12 [2]": {"tested_on": "IL-12", "experiment": "IL-12 production in BMDMs, intracellular staining, flow cytometry", "type": "cell-based, mouse", "protocol": "BMDMs were treated with indole or DMF control for 18 hours or 4 hours, followed by stimulation with LPS (2 ug/ml or 250 ng/ml) for 4 hours in the presence of Golgiplug. BMDMs were then stained for intracellular TNF or IL-12 and analyzed by flow cytometry.\nFirst, pro-inflammatory cytokine production in macrophages was investigated. […] In the DC study described herein, DCs were typically conditioned with indole during their development from bone marrow precursors in order to mimic the proximity of DC progenitor cells to indole in the intestinal microenvironment during development. […] BMDMs were treated for 18 hours with indole, followed by a 4 hour stimulation with either a very high (2 ug/ml) or low (250 ng/ml) dose of LPS.\nAdditionally, to determine if recently arrived macrophage precursors might also be affected, BMDMs were next treated for just 4 hours with indole, followed by a […] stimulation with the same LPS concentrations.\nTo address the question of indole and AhR dependence in macrophages, experiments using BMDMs derived from AhR-knockout mice were run alongside wild-type littermate controls. Specifically, flow cytometric analysis of BMDMs was performed on WT or AhR-KO mice and treated with indole or DMF control for 18 hours. BMDMs were stimulated for 4 hours with LPS (50 ng/ml) in the presence of Golgiplug, then stained for intracellular TNF (left panels) and IL-12 (right panels).\nThe inventors performed a series of assays where bone marrow derived macrophages (BMDMs), bone marrow derived dendritic cells (BMDCs), and splenic dendritic cells (splenic DCs), were exposed to a series of TDMMs, including indole, indole-3-acetate (I3AT), 5-hydroxyindole (5HI), and indole-3-pyruvate (I3P), as well as indole-3-carbinol (I3C; a plant derived compound) to be used for a positive control (1 mM for 24 hours). The BMDMs and BMDCs were stimulated with LPS for 4 hours and assayed at day 7 for expression of various pro-inflammatory cytokines. In a similar assay, the BMDMs and BMDCs were stimulated with LPS or CpG, respectively, for 15 minutes and assayed for pAKT and pERK signaling, which is a reflection of pro-inflammatory response.\nBone marrow was harvested as described above and cultured at a density of 1×10^6 cells in 10 ml complete media supplemented with 10 ng/ml M-CSF (Peprotech) in 100 mm×15 mm petri dishes. Media with cytokine was replenished on day 3. Adherent and semi-adherent cells were recovered on day 7, plated, and treated with indole prior to downstream experiments."}, "TNF": {"tested_on": "TNF", "experiment": "TNF production in BMDCs, intracellular staining, flow cytometry", "type": "cell-based, mouse"}, "[3]": {"conditions": "Pinero-Fernandez et al. 2011; cited from earlier work"}, "IL-12 [4]": {"tested_on": "IL-12", "experiment": "IL-12 production in splenic CD11c+ DCs ex vivo", "conditions": "indole overnight, LPS or heat-killed S. typhimurium", "procedure": "Cultures were then stained for CD11c and intracellular TNF, IL-6, and IL-12. Analysis was confined to CD11c+ DCs and maximal cytokine production was normalized to solvent control (DMF).\nProduction of pro-inflammatory cytokines in CD11c+ DCs was assessed via flow cytometry.\nAll primary cells were cultured in RPMI 1640 supplemented with 2-mercaptoethanol, gentamicin, penicillin, streptomycin, and 10% FCS (all from Life Technologies). […] Stimulation of dendritic cells at the given concentrations of LPS or heat-killed S. typhimurium were performed for 4 hours (DC2.4 and BMDCs) or 6 hours (primary splenic DCs) in the presence of GolgiPlug protein transport inhibitor (BD Biosciences) to measure cytokine production, or for 24 hours (co-stimulatory markers)."}, "nitric oxide (NO)": {"tested_on": "nitric oxide (NO)", "experiment": "Nitric oxide production in DC2.4 and BMDC (Griess reaction)", "procedure": "The secretion of reactive oxygen species (ROS) and nitric oxide (NO) was investigated in DC2.4 and BMDC.\nSupernatants were then incubated with Griess reagent for 10 minutes and then absorbance was measured at 550 nm."}},
  "data": [
    {"smiles": "c1ccc2[nH]ccc2c1", "note": "[Indole, indole]", "values": [
      {"measurement": "B220 (CD45R) expression on BMDCs", "setting": "B220 (CD45R)", "result": "upregulation"},
      {"measurement": "ALDH activity in DCs", "setting": "[1]", "result": "does not affect ALDH activity"},
      {"measurement": "Treg induction by supernatant of conditioned BMDCs relative to solvent control DCs", "setting": "naïve CD4+CD25− T cells", "result": "No significant induction of Tregs"},
      {"measurement": "reduction of IL-12 production", "setting": "IL-12 [2]; BMDMs from WT or AhR-KO mice, 1 mM indole 18 hours, LPS 50 ng/ml 4 hours", "result": "approximately 2 fold"},
      {"measurement": "IL-12", "setting": "IL-12 [2]; BMDMs, 1 mM TDMM 24 hours, LPS 1 ug/ml 4 hours", "result": "↓↓↓"},
      {"measurement": "inhibition of IL-12 production", "setting": "IL-12 [2]; BMDMs, 1 mM indole 18 hours, LPS 2 ug/ml or 250 ng/ml 4 hours", "result": "~2", "unit": "fold"},
      {"measurement": "reduction in TNF", "setting": "TNF; BMDCs exposed to indole from day 3 of 7 day culture, LPS stimulation", "result": 30, "unit": "%"},
      {"measurement": "inhibition of TNF production", "setting": "TNF; BMDCs, indole for 18 hours followed by TLR stimulation", "result": "~2", "unit": "fold"},
      {"measurement": "diffusion across membranes", "setting": "[3]", "result": "freely diffusible across membranes"},
      {"measurement": "inhibition of IL-12 production", "setting": "IL-12 [4]", "result": "≥ 2", "unit": "fold"},
      {"measurement": "secretion of nitric oxide (NO)", "setting": "nitric oxide (NO)", "result": "intact"}
    ]}
  ]
}
